Test system: maize plants
Test: Herbicide tolerance of transgenic maize T1 plants (spraying, damage degree)
Assay type: in vivo
Details: 144 g ai/ha (8x Tri.)
Method: The degree of damage caused by the herbicide was measured for each plant according to the plant growth status 3 days after spraying (3 DAT), 7 days after spraying (7 DAT), 14 days after spraying (14 DAT) and 21 days after spraying (21 DAT): a growth status equivalent to that of the untreated plants is defined as having a damage degree of 0%; the case where leaves are locally chlorotic and yellow but the normal plant growth is substantially not affected is defined as having a damage degree of 50%; and the case where the whole plant is purple and dying is defined as having a damage degree of 100%. The maize plants into which the ALT02M1-02 nucleotide sequence was introduced were of three strains in total (S15, S16 and S17), the maize plants into which the ALT02M2-02 nucleotide sequence was introduced were of three strains in total (S18, S19 and S20), the maize plants into which the ALT02M3-02 nucleotide sequence was introduced were of three strains in total (S21, S22 and S23), the maize plants into which the ALT02-02 nucleotide sequence was introduced were of three strains in total (S24, S25 and S26), the control maize plants were of two strains in total (S27 and S28), and the wild-type maize plants were of one strain in total (CK2); and 10-15 plants were selected from each strain and tested.

[1] = maize genotype CK2 (wild-type maize plants)
[2] = maize genotype S15 (ALT02M1-02 introduced)
[3] = maize genotype S16 (ALT02M1-02 introduced)
[4] = maize genotype S17 (ALT02M1-02 introduced)
[5] = maize genotype S18 (ALT02M2-02 introduced)
[6] = maize genotype S19 (ALT02M2-02 introduced)
[7] = maize genotype S20 (ALT02M2-02 introduced)
[8] = maize genotype S21 (ALT02M3-02 introduced)
[9] = maize genotype S22 (ALT02M3-02 introduced)
[10] = maize genotype S23 (ALT02M3-02 introduced)
[11] = maize genotype S24 (ALT02-02 introduced)
[12] = maize genotype S25 (ALT02-02 introduced)
[13] = maize genotype S26 (ALT02-02 introduced)
[14] = maize genotype S27 (control maize plants, DBN100830N)
[15] = maize genotype S28 (control maize plants, DBN100830N)

Substance: methyl 2-[N-(4-methoxy-6-methyl-1,3,5-triazin-2-yl)-N-methylcarbamoylaminosulfonyl]benzoate [tribenuron-methyl]
- Average damage % 3DAT [1]: 46%
- Average damage % 7DAT [1]: 86%
- Average damage % 14DAT [1]: 100%
- Average damage % 21DAT [1]: 100%
- Average damage % 3DAT [2]: 5%
- Average damage % 7DAT [2]: 0%
- Average damage % 14DAT [2]: 0%
- Average damage % 21DAT [2]: 0%
- Average damage % 3DAT [3]: 6%
- Average damage % 7DAT [3]: 0%
- Average damage % 14DAT [3]: 0%
- Average damage % 21DAT [3]: 0%
- Average damage % 3DAT [4]: 3%
- Average damage % 7DAT [4]: 0%
- Average damage % 14DAT [4]: 0%
- Average damage % 21DAT [4]: 0%
- Average damage % 3DAT [5]: 0%
- Average damage % 7DAT [5]: 0%
- Average damage % 14DAT [5]: 0%
- Average damage % 21DAT [5]: 0%
- Average damage % 3DAT [6]: 0%
- Average damage % 7DAT [6]: 0%
- Average damage % 14DAT [6]: 0%
- Average damage % 21DAT [6]: 0%
- Average damage % 3DAT [7]: 0%
- Average damage % 7DAT [7]: 0%
- Average damage % 14DAT [7]: 0%
- Average damage % 21DAT [7]: 0%
- Average damage % 3DAT [8]: 3%
- Average damage % 7DAT [8]: 0%
- Average damage % 14DAT [8]: 0%
- Average damage % 21DAT [8]: 0%
- Average damage % 3DAT [9]: 2%
- Average damage % 7DAT [9]: 0%
- Average damage % 14DAT [9]: 0%
- Average damage % 21DAT [9]: 0%
- Average damage % 3DAT [10]: 0%
- Average damage % 7DAT [10]: 0%
- Average damage % 14DAT [10]: 0%
- Average damage % 21DAT [10]: 0%
- Average damage % 3DAT [11]: 14%
- Average damage % 7DAT [11]: 5%
- Average damage % 14DAT [11]: 0%
- Average damage % 21DAT [11]: 0%
- Average damage % 7DAT [12]: 4%
- Average damage % 14DAT [12]: 0%
- Average damage % 21DAT [12]: 0%
- Average damage % 3DAT [13]: 20%
- Average damage % 7DAT [13]: 7%
- Average damage % 14DAT [13]: 0%
- Average damage % 21DAT [13]: 0%
- Average damage % 3DAT [14]: 61%
- Average damage % 7DAT [14]: 82%
- Average damage % 14DAT [14]: 100%
- Average damage % 21DAT [14]: 100%
- Average damage % 3DAT [15]: 53%
- Average damage % 7DAT [15]: 78%
- Average damage % 14DAT [15]: 100%
- Average damage % 21DAT [15]: 100%

From patent US12385058B2, “Herbicide tolerance protein, encoding gene thereof and use thereof” (Beijing Dabeinong Biotechnology Co., Ltd., priority 2018, dated 2025)
